# Literature values as cited in patent US10195257B2 (Qantu Therapeutics, Inc., priority 2013, dated 2019).
# Legend:
# T cells = conditions: in vivo
# Aβ = conditions: without any adjuvant, administered intra-nasally
# OVA-specific CTLs = conditions: mice immunized with OVA plus adjuvant
compound,measurement,setting,value
"O=Cc1c(O)cccc1OCc1ccc(C(=O)O)cc1 [tucaresol, 4-(2-formyl-3-hydroxyphenoxymethylbenzoic acid)]",type of immunity favored,T cells,favors a Th1-biased immunity with a Th1-type cytokine profile and concomitant CTL production
Aβ40: main Aβ peptide that contains amino acid residues from 1 to 40,immune response and Aβ plaques,Aβ,Th2 immune response and reduced levels of Aβ plaques
QS-21,immune response type and CTL production,OVA-specific CTLs,Th1 immune response with the concomitant production of OVA-specific CTLs
